Among the data in US7622480B2, “Azaindolylpiperidine derivatives as antihistaminic and antiallergic agents” (Laboratorios Almirall S.A., priority 2002, dated 2009) are IC50 and inhibition in vivo values, retold here.

In one assay the target is T1, histamine H1 receptor (Cavia porcellus, UniProt P31389).
T1 construct: performed in guinea pig cerebellum membranes as described previously; from tissue; host or cells: guinea pig cerebellum membranes
Nature of the assay: Histamine-H1 receptor binding assay. The settings on record: guinea pig cerebellum membranes, 0.7 nM [3H]-mepyramine, 30 min at 30° C. The protocol: (1) In vitro histamine H1 receptor binding assay, to measure the affinity of the compounds. […] Briefly, the membrane suspensions (160 μg/ml) were incubated at 30° C. with 0.7 nM [^3H]-mepyramine and different concentrations of the test compounds in a final volume of 250 μl. Binding reactions were terminated by filtration after 30 min of incubation and the bound radioactivity was determined. The non-specific binding was measured in the presence of 10 μM of promethazine. The affinity of each test compound to the receptor was determined by using at least six different concentrations run in duplicate. IC50 values were obtained by non-linear regression by use of SAS on a DEC AXP computer.

Assay [1] deals with Histamine-induced skin vascular permeability in rats. Nature of the assay: Histamine-induced skin vascular permeability in rats. The assay is classed as in vivo. The settings on record: Rattus norvegicus, 4 h; Male Wistar rats, oral, dose of 3 mg/Kg, four hours after administration, compared with vehicle treated group. The protocol: Either one, four, eight or 24 hours later the rats were lightly anaesthetized with ether and a cutaneous reaction was induced by two intradermal injections of 50 μl of histamine (100 μg/ml) onto the back, followed by a intravenous injection of 3 ml/kg of Evan's Blue (5 mg/ml), both dissolved in saline. Sixty minutes later, the rats were killed by cervical dislocation and the back skin dissected free. The diameter (in millimetres) of the papule was measured in two directions and the area was calculated.

Structures are written as SMILES.

T1 sequence (P31389 whole entry): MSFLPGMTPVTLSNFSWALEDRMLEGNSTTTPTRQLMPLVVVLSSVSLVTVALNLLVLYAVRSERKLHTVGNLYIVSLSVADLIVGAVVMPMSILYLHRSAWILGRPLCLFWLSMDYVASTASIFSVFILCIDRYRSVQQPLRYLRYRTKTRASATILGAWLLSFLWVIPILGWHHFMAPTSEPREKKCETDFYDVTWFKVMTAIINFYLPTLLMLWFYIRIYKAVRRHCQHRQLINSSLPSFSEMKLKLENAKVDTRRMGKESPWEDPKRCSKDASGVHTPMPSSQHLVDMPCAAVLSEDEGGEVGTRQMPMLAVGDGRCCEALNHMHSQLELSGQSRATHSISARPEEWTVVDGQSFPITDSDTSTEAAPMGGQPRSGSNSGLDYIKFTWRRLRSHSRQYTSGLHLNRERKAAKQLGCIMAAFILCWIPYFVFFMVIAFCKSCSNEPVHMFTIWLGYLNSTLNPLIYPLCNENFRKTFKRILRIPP

The IC50 is the midpoint of a concentration-inhibition curve. Low readings indicate greater potency, high ones weaker potency. What is called inhibition in vivo is the change of the read-out against control, counted positive when it falls. `COc1ccc(CN2CCC(c3cn(Cc4ccoc4)c4ncccc34)CC2)cc1C(=O)O` [Example 7, 5-[4-(1-furan-3-ylmethyl-1H-pyrrolo[2,3-b]pyridin-3-yl)-piperidin-1-ylmethyl]-2-methoxybenzoic acid] showed a 50% inhibitory concentration (IC50) on histamine H1 receptor of 205 nM. In assay [1], this compound yielded an inhibition in vivo at 3 mg/kg greater than 50%.
For the compound `COc1cccc(C(=O)O)c1OCCN1CCC(c2cn(Cc3ccc(Cl)s3)c3ncccc23)CC1` [Example 54, 2-(2-{4-[1-(5-chlorothiophen-2-ylmethyl)-1H-pyrrolo[2,3-b]pyridin-3-yl]-piperidin-1-yl}-ethoxy)-3-methoxybenzoic acid], the concentration for half-maximal inhibition (IC50) on histamine H1 receptor amounted to 695 nM.
Still for that read-out and setting: with `O=C(O)c1cc(CN2CCC(c3cn(Cc4ccoc4)c4ncccc34)CC2)ccc1F` [Example 45, 2-fluoro-5-[4-(1-furan-3-ylmethyl-1H-pyrrolo[2,3-b]pyridin-3-yl)-piperidin-1-ylmethyl]-benzoic acid] the figure was 255 nM.
With `COc1ccc(CN2CCC(c3cn(Cc4ccc(Cl)s4)c4ncccc34)CC2)cc1C(=O)O` [Example 19, 5-{4-[1-(5-chlorothiophen-2-ylmethyl)-1H-pyrrolo[2,3-b]pyridin-3-yl]-piperidin-1-ylmethyl}2-methoxybenzoic acid], on histamine H1 receptor, the IC50 is 500 nM. For the same compound, the inhibition in vivo at 3 mg/kg in assay [1] is greater than 50%.
On the same counts, the results for `CCOCCn1cc(C2CCN(CCOc3cc(OC)ccc3C(=O)O)CC2)c2cccnc21` [Example 36, 2-(2-{4-[1-(2-ethoxyethyl)-1H-pyrrolo[2,3-b]pyridin-3-yl]-piperidin-1-yl}-ethoxy)-4-methoxybenzoic acid] are 160 nM and greater than 50%.
`O=C(O)c1ccc(Cl)cc1OCCN1CCC(c2cn(Cc3ccc(Cl)s3)c3cnccc23)CC1` [Example 92, 4-chloro-2-(2-{4-[1-(5-chlorothiophen-2-ylmethyl)-1H-pyrrolo[2,3-c]pyridin-3-yl]-piperidin-1-yl}-ethoxy)-benzoic acid] registered a half-maximal inhibitory concentration (IC50) on histamine H1 receptor of 105 nM.
Same read-out and setting: with `CCCCn1cc(C2CCN(CCOc3cc(Cl)ccc3C(=O)O)CC2)c2ccncc21` [Example 84, 2-{2-[4-(1-butyl-1H-pyrrolo[2,3-c]pyridin-3-yl)piperidin-1-yl]-ethoxy}-4-chlorobenzoic acid] the figure was 74 nM; with `COc1ccc(C(=O)O)c(OCCN2CCC(c3cn(Cc4ccoc4)c4ncccc34)CC2)c1` [Example 43, 2-{2-[4-(1-furan-3-ylmethyl-1H-pyrrolo[2,3-b]pyridin-3-yl)piperidin-1-yl]-ethoxy}-4-methoxybenzoic acid], 120 nM.
Same read-out and setting: with `O=C(O)c1ccccc1OCCN1CCC(c2cn(Cc3ccsc3)c3ncccc23)CC1` [Example 14, 2-{2-[4-(1-thiophen-3-ylmethyl-1H-pyrrolo[2,3-b]pyridin-3-yl)-piperidin-1-yl]-ethoxy}-benzoic acid] the figure was 510 nM; with `COc1ccc(CN2CCC(c3cn(Cc4ccco4)c4cnccc34)CC2)cc1C(=O)O` [Example 96, 5-[4-(1-furan-2-ylmethyl-1H-pyrrolo[2,3-c]pyridin-3-yl)-piperidin-1-ylmethyl]-2-methoxybenzoic acid], 805 nM.
In the case of `O=C(O)c1cccc(CN2CCC(c3cn(CC4CC4)c4ncccc34)CC2)c1` [Example 28, 3-[4-(1-cyclopropylmethyl-1H-pyrrolo[2,3-b]pyridin-3-yl)-piperidin-1-ylmethyl]-benzoic acid], the IC50 at histamine H1 receptor was 520 nM.
Still for that read-out and setting: with `CCCCn1cc(C2CCN(CCOc3cc(Cl)ccc3C(=O)O)CC2)c2cccnc21` [Example 63, 2-{2-[4-(1-butyl-1H-pyrrolo[2,3-b]pyridin-3-yl)-piperidin-1-yl]-ethoxy}-4-chlorobenzoic acid] the figure was 110 nM.
In turn, `O=C(O)c1ccccc1OCCN1CCC(c2cn(Cc3ccco3)c3ncccc23)CC1` [Example 8, 2-{2-[4-(1-furan-2-ylmethyl-1H-pyrrolo[2,3-b]pyridin-3-yl)-piperidin-1-yl]-ethoxy}-benzoic acid] had an IC50 on histamine H1 receptor of 405 nM. This compound registered an inhibition in vivo at 3 mg/kg in assay [1] greater than 50%.
In turn, `CCCCn1cc(C2CCN(Cc3cccc(C(=O)O)c3)CC2)c2cccnc21` [Example 26, 3-[4-(1-butyl-1H-pyrrolo[2,3-b]pyridin-3-yl)piperidin-1-ylmethyl]-benzoic acid] showed an IC50 on histamine H1 receptor of 275 nM.
Same read-out and setting: with `O=C(O)c1ccccc1OCCN1CCC(c2cn(Cc3cccs3)c3ncccc23)CC1` [Example 11, 2-{2-[4-(1-thiophen-2-ylmethyl-1H-pyrrolo[2,3-b]pyridin-3-yl)-piperidin-1-yl]-ethoxy}benzoic acid] the figure was 505 nM; with `COCCn1cc(C2CCN(Cc3c(OC)ccc(C(=O)O)c3OC)CC2)c2cccnc21` [Example 22, 2,4-dimethoxy-3-{4-[1-(2-methoxyethyl)-1H-pyrrolo[2,3-b]pyridin-3-yl]-piperidin-1-ylmethyl}-benzoic acid], 235 nM.
The compound `CCCCn1cc(C2CCN(CCOc3ccccc3C(=O)O)CC2)c2cccnc21` [Example 25, 2-{2-[4-(1-butyl-1H-pyrrolo[2,3-b]pyridin-3-yl)piperidin-1-yl]-ethoxy}-benzoic acid] yielded a half-maximal inhibitory concentration (IC50) on histamine H1 receptor of 235 nM. The inhibition in vivo at 3 mg/kg in assay [1] was greater than 50%.
`O=C(O)c1cccc(CN2CCC(c3cn(Cc4ccc(Cl)s4)c4ncccc34)CC2)c1` [Example 18, 3-{4-[1-(5-chlorothiophen-2-ylmethyl)-1H-pyrrolo[2,3-b]pyridin-3-yl]-piperidin-1-ylmethyl}-benzoic acid] displayed an IC50 at histamine H1 receptor of 315 nM. That is a sub-micromolar value.
`CCCCn1cc(C2CCN(Cc3ccc(OC)c(C(=O)O)c3)CC2)c2cccnc21` [Example 24, 5-[4-(1-butyl-1H-pyrrolo[2,3-b]pyridin-3-yl)piperidin-1-ylmethyl]-2-methoxybenzoic acid] gave an IC50 on histamine H1 receptor of 475 nM. For the same compound, in assay [1], the inhibition in vivo at 3 mg/kg is greater than 50%.
The corresponding values for `CCCCn1cc(C2CCN(CCOc3cc(OC)ccc3C(=O)O)CC2)c2cccnc21` [Example 61, 2-{2-[4-(1-butyl-1H-pyrrolo[2,3-b]pyridin-3-yl)piperidin-1-yl]-ethoxy}-4-methoxybenzoic acid] are 100 nM and greater than 50%.
The compound `CCOCCn1cc(C2CCN(CCOc3c(OC)cccc3C(=O)O)CC2)c2cccnc21` [Example 37, 2-(2-{4-[1-(2-ethoxyethyl)-1H-pyrrolo[2,3-b]pyridin-3-yl]-piperidin-1-yl}-ethoxy)-3-methoxybenzoic acid] registered a half-maximal inhibitory concentration (IC50) on histamine H1 receptor of 155 nM.
Take `CCOCCn1cc(C2CCN(CCOc3ccccc3C(=O)O)CC2)c2cccnc21` [Example 6]: the IC50 on histamine H1 receptor amounted to 190 nM. In assay [1], this compound gave an inhibition in vivo at 3 mg/kg greater than 50%.
At histamine H1 receptor, `CCOCCn1cc(C2CCN(Cc3cccc(C(=O)O)c3)CC2)c2cccnc21` [Example 4, 3-{4-[1-(2-ethoxyethyl)-1H-pyrrolo[2,3-b]pyridin-3-yl]piperidin-1-ylmethyl}benzoic acid] showed a half-maximal inhibitory concentration (IC50) of 403 nM. Further, the inhibition in vivo at 3 mg/kg in assay [1] was greater than 50%.
The corresponding values for `O=C(O)c1cccc(CN2CCC(c3cn(Cc4ccco4)c4ncccc34)CC2)c1` [Example 9, 3-[4-(1-furan-2-ylmethyl-1H-pyrrolo[2,3-b]pyridin-3-yl)piperidin-1-ylmethyl]-benzoic acid] are 150 nM and greater than 50%.
At histamine H1 receptor, `COCCn1cc(C2CCN(CCOc3cccc(OC)c3C(=O)O)CC2)c2cccnc21` [Example 23, 2-methoxy-6-(2-{4-[1-(2-methoxyethyl)-1H-pyrrolo[2,3-b]pyridin-3-yl]-piperidin-1-yl}-ethoxy)benzoic acid] had an IC50 of 275 nM. That is a sub-micromolar value.
Same read-out and setting: next, `COc1ccc(C(=O)O)c(OCCN2CCC(c3cn(Cc4ccoc4)c4cnccc34)CC2)c1` [Example 76, 2-{2-[4-(1-furan-3-ylmethyl-1H-pyrrolo[2,3-c]pyridin-3-yl)-piperidin-1-yl]-ethoxy}-4-methoxybenzoic acid]: 675 nM.
On the same count and under the same terms, with `CCCCn1cc(C2CCN(CCOc3ccccc3C(=O)O)CC2)c2ccncc21` [Example 81, 2-{2-[4-(1-butyl-1H-pyrrolo[2,3-c]pyridin-3-yl)-piperidin-1-yl]-ethoxy}-benzoic acid] the figure was 220 nM.
Same read-out and setting: with `CCCCn1cc(C2CCN(Cc3ccc(F)c(C(=O)O)c3)CC2)c2cccnc21` [Example 64, 5-[4-(1-butyl-1H-pyrrolo[2,3-b]pyridin-3-yl)-piperidin-1-ylmethyl]-2-fluorobenzoic acid] the figure was 380 nM; with `O=C(O)c1ccccc1OCCN1CCC(c2cn(Cc3ccc(Cl)s3)c3ncccc23)CC1` [Example 17, 2-(2-{4-[1-(5-chlorothiophen-2-ylmethyl)-1H-pyrrolo[2,3-b]pyridin-3-yl]-piperidin-1-yl}-ethoxy)-benzoic acid], 265 nM.
For the compound `COc1ccc(C(=O)O)c(OCCN2CCC(c3cn(Cc4ccco4)c4ncccc34)CC2)c1` [Example 50, 2-{2-[4-(1-furan-2-ylmethyl-1H-pyrrolo[2,3-b]pyridin-3-yl)-piperidin-1-yl]-ethoxy}-4-methoxybenzoic acid], at histamine H1 receptor, the IC50 amounted to 48 nM. This IC50 lies about 5.5-fold lower than the previous one.
The same measure, in the same setting: next, `CCOCCn1cc(C2CCN(CCOc3cc(Cl)ccc3C(=O)O)CC2)c2ccncc21` [Example 73, 4-chloro-2-(2-{4-[1-(2-ethoxyethyl)-1H-pyrrolo[2,3-c]pyridin-3-yl]-piperidin-1-yl}-ethoxy)-benzoic acid]: 111 nM.
